Consider 13 compounds from patent US20250179078A1, “INHIBITORS OF NLRP3” (PTC THERAPEUTICS, INC., priority 2022, published 2025).

The structures appear in SMILES notation. Some results are limits rather than exact numbers.

T1 sequence (Q96P20 whole entry): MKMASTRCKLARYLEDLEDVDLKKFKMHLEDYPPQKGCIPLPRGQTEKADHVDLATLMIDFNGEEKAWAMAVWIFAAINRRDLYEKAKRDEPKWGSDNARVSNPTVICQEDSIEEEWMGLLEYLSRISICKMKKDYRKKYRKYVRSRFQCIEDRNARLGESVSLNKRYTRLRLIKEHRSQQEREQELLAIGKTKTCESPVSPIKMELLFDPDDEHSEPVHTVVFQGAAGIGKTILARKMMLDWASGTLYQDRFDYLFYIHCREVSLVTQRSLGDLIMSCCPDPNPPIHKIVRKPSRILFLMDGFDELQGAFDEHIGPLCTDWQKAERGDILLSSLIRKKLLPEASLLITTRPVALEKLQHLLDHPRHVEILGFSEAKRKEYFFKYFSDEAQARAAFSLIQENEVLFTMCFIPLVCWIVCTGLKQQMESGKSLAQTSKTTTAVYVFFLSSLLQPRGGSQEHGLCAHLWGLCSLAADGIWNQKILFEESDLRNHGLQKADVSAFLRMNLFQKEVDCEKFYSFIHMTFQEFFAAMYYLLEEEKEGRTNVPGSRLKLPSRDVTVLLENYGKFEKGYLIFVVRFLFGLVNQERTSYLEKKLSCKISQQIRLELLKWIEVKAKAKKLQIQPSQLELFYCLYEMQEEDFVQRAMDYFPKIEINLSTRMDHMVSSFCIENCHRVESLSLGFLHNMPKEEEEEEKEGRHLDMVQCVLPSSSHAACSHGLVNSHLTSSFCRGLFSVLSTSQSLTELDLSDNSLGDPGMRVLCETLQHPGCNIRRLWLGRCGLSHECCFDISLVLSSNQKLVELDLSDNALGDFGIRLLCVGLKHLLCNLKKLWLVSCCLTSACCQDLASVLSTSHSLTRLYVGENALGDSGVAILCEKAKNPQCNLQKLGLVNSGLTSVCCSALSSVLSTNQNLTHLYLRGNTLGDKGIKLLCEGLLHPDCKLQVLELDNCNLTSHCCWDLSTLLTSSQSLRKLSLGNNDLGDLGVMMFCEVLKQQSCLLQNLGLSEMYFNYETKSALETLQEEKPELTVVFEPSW

The test addresses T1, NLRP3 (Homo sapiens, UniProt Q96P20).
T1 construct: host or cells: THP-1 cells differentiated with PMA
In words: IL-1β Secretion Assay (NLRP3-dependent IL1β secretion in THP1 cells). The test is classed as cell-based. As to conditions: PMA-differentiated THP-1 cells; compounds incubated 20 h; 2.5 μM Nigericin 3 h; HTRF IL-1β readout; read-out: IC50 IL-1β Inhibition. The gist of the method: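 THP-1 cells differentiated with 100 ng/mL PMA for 24 h, then given compound (7-point 3-fold series, 1:200 from DMSO) for 20 h in RPMI+5% FBS. NLRP3 activated with 2.5 μM nigericin for 3 h; secreted IL-1β measured by HTRF; IC50 from logistic fit of % inhibition.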
What is called IC50 is the concentration that gives 50% inhibition. For the compound `COc1ccc(-c2nnc(N[C@H]3C[C@@](C)(O)C3)n3cccc23)c(C2CC2)c1` [Compound 104, (1s,3s)-3-{[1-(2-cyclopropyl-4-methoxyphenyl)pyrrolo[1,2-d][1,2,4]triazin-4-yl]amino}-1-methylcyclobutan-1-ol], the IC50 fell in the range of 10 to 100 nM.

`Cc1cc2c(-c3ccc(C(F)(F)F)cc3C(F)(F)F)nnc(NC3CCNC3=O)n2c1` (stereo not shown) [Compound 161, 3-({1-[2,4-bis(trifluoromethyl)phenyl]-7-methylpyrrolo[1,2-d][1,2,4]triazin-4-yl}amino)pyrrolidin-2-one]: the IC50 is 1 to 10 nM. To `CN1C[C@H](F)C[C@@H](Nc2nnc(-c3ccc(C(F)(F)F)cc3C(F)(F)F)c3c(F)ccn23)C1` [Compound 31, 1-[2,4-bis(trifluoromethyl)phenyl]-8-fluoro-N-[(3R,5R)-5-fluoro-1-methylpiperidin-3-yl]pyrrolo[1,2-d][1,2,4]triazin-4-amine] belongs 1 to 10 nM; to `O[C@H]1CCCC[C@@H]1Nc1nnc(-c2ccc(C(F)(F)F)cc2OC(F)F)c2cccn12` [Compound 78, (1S,2S)-2-({1-[2-(difluoromethoxy)-4-(trifluoromethyl)phenyl]pyrrolo[1,2-d][1,2,4]triazin-4-yl}amino)cyclohexan-1-ol], 10 to 100 nM. With `COc1ccc(-c2nnc(NC3CCNC3=O)n3cncc23)c(CC(F)(F)F)c1` (stereo not shown) [Compound 238, 3-({1-[4-methoxy-2-(2,2,2-trifluoroethyl)phenyl]imidazo[1,5-d][1,2,4]triazin-4-yl}amino)pyrrolidin-2-one], the 50% inhibitory concentration (IC50) was 1 to 10 nM. Consider `O[C@@H]1COCC[C@H]1Nc1nnc(-c2ccc(C(F)(F)F)cc2OC(F)(F)F)c2cncn12` [Compound 322, (3S,4R)-4-({1-[2-(trifluoromethoxy)-4-(trifluoromethyl)phenyl]imidazo[1,5-d][1,2,4]triazin-4-yl}amino)oxan-3-ol], for which the IC50 fell in the range of 10 to 100 nM.

Take `CN1CCC[C@@H](Nc2nnc(-c3ccc(C(F)(F)F)cc3C(F)(F)F)c3cncn23)C1` [Compound 217, 1-[2,4-bis(trifluoromethyl)phenyl]-N-[(3R)-1-methylpiperidin-3-yl]imidazo[1,5-d][1,2,4]triazin-4-amine]: the concentration for half-maximal inhibition (IC50) was < 1 nM.

`COc1ccc(-c2nnc(N[C@@H]3CCCN(C)C3)n3cncc23)c(OC(F)F)c1` [Compound 216, 1-[2-(difluoromethoxy)-4-methoxyphenyl]-N-[(3R)-1-methylpiperidin-3-yl]imidazo[1,5-d][1,2,4]triazin-4-amine]: the IC50 lay in the range of 1 to 10 nM. In the case of `COc1ccc(-c2nnc(NC3CCOCC3)n3cccc23)c(OC(F)(F)F)c1` [Compound 67, 1-[4-methoxy-2-(trifluoromethoxy)phenyl]-N-(oxan-4-yl)pyrrolo[1,2-d][1,2,4]triazin-4-amine], the IC50 lay within 1 to 10 nM. Regarding `COc1ccc(-c2nnc(N[C@@H]3CCCN(CCO)C3)n3cccc23)c(OC(F)(F)F)c1` [Compound 61, 2-[(3R)-3-({1-[4-methoxy-2-(trifluoromethoxy)phenyl]pyrrolo[1,2-d][1,2,4]triazin-4-yl}amino)piperidin-1-yl]ethan-1-ol], the IC50 was < 1 nM.

Take `FC(F)(F)Oc1cc(C(F)(F)F)ccc1-c1nnc(Nc2cc[nH]n2)n2cccc12` [Compound 150, N-(1H-pyrazol-3-yl)-1-[2-(trifluoromethoxy)-4-(trifluoromethyl)phenyl]pyrrolo[1,2-d][1,2,4]triazin-4-amine]: the IC50 was 100 to 300 nM.

Take `OCCN1CCC[C@@H](Nc2nnc(-c3ccc(C(F)(F)F)cc3OC(F)F)c3c(F)ccn23)C1` [Compound 15]: the IC50 was in the range of 1 to 10 nM. Regarding `COCC1CC(Nc2nnc(-c3ccc(C(F)(F)F)cc3OC(F)(F)F)c3cncn23)C1` (stereo not shown) [Compound 324, N-[3-(methoxymethyl)cyclobutyl]-1-[2-(trifluoromethoxy)-4-(trifluoromethyl)phenyl]imidazo[1,5-d][1,2,4]triazin-4-amine], the IC50 was 10 to 100 nM.
